Experimental data taken from patent publication US20260284005A1, “INHIBITING MITOGEN-ACTIVATED PROTEIN (MAP)/ERK KINASE (MEK)1 AND MEK2 AND RELATED METHODS OF TREATMENT” (priority 2023, published 2026).
Read-outs that look alike come from different tables or passages of the source. One block for each compound: values may come before it.

Legend:
[1] = tested on: ERK-induced transcription in Colon-26 tumors; assay: Colon-26 tumor RNA sequencing, ERK transcriptome; assay type: in vivo, BALB/c mice; conditions: 100 mg/kg BID PO, day 18, Colon-26
[2] = human, in vivo; cited from earlier work
[3] = in vivo
[4] = tested on: tumor models (cell lines); assay: Humanized 3D tumor growth assay (3D-TGA), tumor model panel / other cell lines; assay type: cell-based, human; conditions: read-out: IC50 in 3D-TGA Ifebemetinib, KRAS G12D, agent alone
From the text: The humanized 3D tumor growth assay (3D-TGA) is an extracellular matrix (ECM)-based, 3D tumor model that more faithfully mimics the human tumor microenvironment (TME) with the goal of improving translational fidelity to patients. See Casneuf T, et al., “Interleukin-6 is a potential therapeutic target in interleukin-6 dependent, estrogen receptor-α-positive breast cancer,” Breast Cancer (Dove Med Press). […] MEK inhibition in the 3D-TGA. […]
All cell lines were validated by IDEXX upon receipt and assay setup. See Appendix for full cell line list.
(§1) Cells were seeded in 3D cultures in a black-walled, clear-bottom, non-tissue culture treated, 384-well plate (3000 cells per well) using a 1:1 mixture of BME and a custom media and grown in a humidified incubator with 5% CO2 and 5% O2, which approximates capillary levels for each gas, at 37° C. […] Cells were assessed for cell proliferation using EdU cell proliferation staining. […] Cells were permeabilized with 30 μL of filtered 0.5% Triton X-100 in PBS for 20 minutes at room temperature. Samples were washed twice gently with PBS. Cells were stained utilizing click-iT chemistry by adding 20 μL of staining cocktail containing 2 mM copper sulfate, 8 μM sulfo-Cy5-azide, and 20 mg/ml ascorbic acid in PBS and incubated 30-60 minutes at room temperature in dark. […] Plates were imaged with the Molecular Devices Pico ImageXpress. Images were segmented and percentage of cells with EdU incorporation was quantified to calculate antiproliferative effects of the drugs.
(§2) Five (5)-ethynyl-2′-deoxyuridine (EdU) data was represented as percentage EdU positive cells quantified by high content imaging from the Molecular Devices ImageXpress® Pico.

[5] = tested on: MIA PaCa-2 cells; assay: 3D-TGA; assay type: cell-based, human
[6] = tested on: A-427 cells; assay: 3D-TGA; assay type: cell-based, human; conditions: A-427, LUN, KRAS G12D
Experimental: as §1, §2

[7] = tested on: AsPC-1 cells; assay: 3D-TGA; assay type: cell-based, human; conditions: read-out: IC50 in 3D-TGA Ifebemetinib; AsPC-1, PAN, KRAS G12D; agent alone
Experimental: as §1, §2

[8] = tested on: CL-40 cells; assay: 3D-TGA; assay type: cell-based, human; conditions: read-out: IC50 in 3D-TGA Ifebemetinib; CL-40, COL, KRAS G12D; agent alone
Experimental: as §1, §2

[9] = tested on: HCC-44 cells; assay: 3D-TGA; assay type: cell-based, human; conditions: read-out: IC50 in 3D-TGA Ifebemetinib; HCC-44, LUN, KRAS G12C; agent alone
Experimental: as §1, §2

[10] = tested on: HPAC cells; assay: 3D-TGA; assay type: cell-based, human; conditions: read-out: IC50 in 3D-TGA Ifebemetinib, PAN, KRAS G12D, agent alone
Experimental: as §1, §2

[11] = tested on: HPAF-II cells; assay: 3D-TGA; assay type: cell-based, human; conditions: read-out: IC50 in 3D-TGA Ifebemetinib, PAN, KRAS G12D, agent alone
Experimental: as §1, §2

[12] = tested on: LU99 cells; assay: 3D-TGA; assay type: cell-based, human; conditions: read-out: IC50 in 3D-TGA Ifebemetinib; LU99, LUN, KRAS G12C; agent alone
Experimental: as §1, §2

[13] = tested on: NCI-H2030 cells; assay: 3D-TGA; assay type: cell-based, human; conditions: read-out: IC50 in 3D-TGA Ifebemetinib; NCI-H2030, LUN, KRAS G12C; agent alone
Experimental: as §1, §2

[14] = tested on: NCI-H2122 cells; assay: 3D-TGA; assay type: cell-based, human; conditions: read-out: IC50 in 3D-TGA Ifebemetinib; NCI-H2122, LUN, KRAS G12C; agent alone
Experimental: as §1, §2

[15] = tested on: PANC-1 cells; assay: 3D-TGA; assay type: cell-based, human; conditions: read-out: IC50 in 3D-TGA Ifebemetinib; PANC-1, PAN, KRAS G12D; agent alone
Experimental: as §1, §2

[16] = tested on: Panc 10.05 cells; assay: 3D-TGA; assay type: cell-based, human; conditions: read-out: IC50 in 3D-TGA Ifebemetinib; Panc 10.05, PAN, KRAS G12D; agent alone
Experimental: as §1, §2

[17] = tested on: NCI-H358 cells; assay: 3D-TGA; assay type: cell-based, human
[18] = tested on: NCI-H1792 cells; assay: 3D-TGA; assay type: cell-based, human
[19] = tested on: A549 cells; assay: 3D-TGA; assay type: cell-based, human; conditions: Homo sapiens; A549, LUN, KRAS G12S; read-out: IC50 in 3D-TGA, CDK-4-6 inhibitor alone
Experimental: as §1, §2

[20] = tested on: Calu-6 cells; assay: 3D-TGA; assay type: cell-based, human; conditions: Homo sapiens; Calu-6, LUN, KRAS Q61K; read-out: IC50 in 3D-TGA, CDK-4-6 inhibitor alone
Experimental: as §1, §2

[21] = tested on: HT-29 cells; assay: 3D-TGA; assay type: cell-based, human; conditions: Homo sapiens; HT-29, COL, BRAF V600E; read-out: IC50 in 3D-TGA, CDK-4-6 inhibitor alone
Experimental: as §1, §2

[22] = tested on: NCI-H508 cells; assay: 3D-TGA; assay type: cell-based; conditions: Homo sapiens
[23] = tested on: SK-CO-1 cells; assay: 3D-TGA; assay type: cell-based; conditions: Homo sapiens
[24] = tested on: LS411N cells; assay: 3D-TGA; assay type: cell-based; conditions: Homo sapiens, LS-411N
[25] = tested on: NCI-H820 cells; assay: 3D-TGA; assay type: cell-based; conditions: Homo sapiens
[26] = tested on: NCI-H1975 cells; assay: 3D-TGA; assay type: cell-based; conditions: Homo sapiens
[27] = tested on: NCI-H1650 cells; assay: 3D-TGA; assay type: cell-based; conditions: Homo sapiens
[28] = tested on: NCI-H2172 cells; assay: 3D-TGA; assay type: cell-based; conditions: Homo sapiens
[29] = Homo sapiens, MIA PaCa-2, PAN, KRAS G12C, read-out: IC50 in 3D-TGA, CDK-4-6 inhibitor alone
[30] = Homo sapiens, read-out: IC50 in 3D-TGA, CDK-4-6 inhibitor alone

Compound: Cn1cnc2c(F)c(Nc3ccc(Br)cc3Cl)c(C(=O)NOCCO)cc21 [selumetinib]
ERK transcriptome, 2 h vs 12 h post-dose [1]: sustained MAPK pathway suppression
half-lives [2]: 6.2 h

half-lives per cycle [3]: ≤ 0.55
Compound: O=C(c1ccc(F)c(F)c1Nc1ccc(I)cc1F)N1CC(O)([C@@H]2CCCCN2)C1 [cobimetinib]

half-lives per cycle [3]: ≤ 0.25
Compound: CC(=O)Nc1cccc(-n2c(=O)n(C3CC3)c(=O)c3c(Nc4ccc(I)cc4F)n(C)c(=O)c(C)c32)c1 [trametinib]

IC50 ([4]; COLO 678, COL): > 1000 nM
IC50 ([4]; T3M-10, LUN): > 1000 nM
IC50 ([5]; read-out: IC50 in 3D-TGA Ifebemetinib, MIA PaCa-2, PAN, KRAS G12C, agent alone): > 1000 nM
IC50 ([6]; read-out: IC50 in 3D-TGA Ifebemetinib, agent alone): > 1000 nM
IC50 [7]: > 1000 nM
IC50 [8]: > 1000 nM
IC50 [9]: > 1000 nM
IC50 [10]: > 1000 nM
IC50 [11]: > 1000 nM
IC50 [12]: > 1000 nM
IC50 [13]: 500 to 1000 nM
IC50 [14]: > 1000 nM
IC50 [15]: > 1000 nM
IC50 [16]: > 1000 nM
IC50 ([17]; read-out: IC50 in 3D-TGA Ifebemetinib, NCI-H358, LUN, KRAS G12C, agent alone): > 1000 nM
IC50 ([18]; read-out: IC50 in 3D-TGA Ifebemetinib, NCI-H1792, LUN, KRAS G12C, agent alone): > 1000 nM
Compound: ifebemetinib

IC50 [5, 29]: 1000 nM
IC50 [6, 30]: 100 to 500 nM
IC50 [19]: 100 to 500 nM
IC50 [20]: 1000 nM
IC50 [21]: 1000 nM
Compound: CCN1CCN(Cc2ccc(Nc3ncc(F)c(-c4cc(F)c5nc(C)n(C(C)C)c5c4)n3)nc2)CC1 [Abemaciclib, abemaciclib]

IC50 [5, 29]: 1000 nM
IC50 [6, 30]: 500 to 1000 nM
IC50 [19]: 100 to 500 nM
IC50 [20]: 1000 nM
IC50 [21]: 1000 nM
Compound: CC(=O)c1c(C)c2cnc(Nc3ccc(N4CCNCC4)cn3)nc2n(C2CCCC2)c1=O [Palbociclib, palbociclib]

IC50 ([5]; Homo sapiens, read-out: IC50 in 3D-TGA Erlotinib, MIA PACA-2, PAN, KRAS G12C, agent alone): 1000 nM
IC50 ([22]; read-out: IC50 in 3D-TGA Erlotinib, NCI-H508, COL, BRAF G596R, agent alone): 1000 nM
IC50 ([23]; read-out: IC50 in 3D-TGA Erlotinib, SK-CO-1, COL, KRAS G12V, agent alone): 1000 nM
IC50 ([24]; read-out: IC50 in 3D-TGA Erlotinib, LS411N, COL, BRAF V600E, agent alone): 1000 nM
IC50 ([17]; Homo sapiens, read-out: IC50 in 3D-TGA Erlotinib, NCI-H358, LUN, KRAS G12C, agent alone): 1000 nM
IC50 ([18]; Homo sapiens, read-out: IC50 in 3D-TGA Erlotinib, NCI-H1792, LUN, KRAS G12C, agent alone): 1000 nM
IC50 ([25]; read-out: IC50 in 3D-TGA Erlotinib, NCI-H820, LUN, EGFR T790M, agent alone): 1000 nM
IC50 ([26]; read-out: IC50 in 3D-TGA Erlotinib, NCI-H1975, LUN, EGFR L858R, agent alone): 1000 nM
IC50 ([27]; read-out: IC50 in 3D-TGA Erlotinib, NCI-H1650, LUN, EGFR E746_A750 del, agent alone): 1000 nM
IC50 ([28]; read-out: IC50 in 3D-TGA Erlotinib, NCI-H2172, LUN, EGFR L858R, agent alone): 1000 nM
Compound: C#Cc1cccc(Nc2ncnc3cc(OCCOC)c(OCCOC)cc23)c1 [Erlotinib, erlotinib]

IC50 ([5]; Homo sapiens, MIA PaCa-2, read-out: IC50 in 3D-TGA Afatinib): 1000 nM
IC50 ([22]; NCI-H508, read-out: IC50 in 3D-TGA Afatinib): 500 to 1000 nM
IC50 ([23]; SK-CO-1, read-out: IC50 in 3D-TGA Afatinib): 1000 nM
IC50 ([24]; read-out: IC50 in 3D-TGA Afatinib): 1000 nM
IC50 ([17]; Homo sapiens, NCI-H358, read-out: IC50 in 3D-TGA Afatinib): 1000 nM
IC50 ([18]; Homo sapiens, NCI-H1792, read-out: IC50 in 3D-TGA Afatinib): 1000 nM
IC50 ([25]; NCI-H820, read-out: IC50 in 3D-TGA Afatinib): 1000 nM
IC50 ([26]; NCI-H1975, read-out: IC50 in 3D-TGA Afatinib): 1000 nM
IC50 ([27]; NCI-H1650, read-out: IC50 in 3D-TGA Afatinib): 1000 nM
IC50 ([28]; NCI-H2172, read-out: IC50 in 3D-TGA Afatinib): 1000 nM
Compound: CN(C)C/C=C/C(=O)Nc1cc2c(Nc3ccc(F)c(Cl)c3)ncnc2cc1O[C@H]1CCOC1 [Afatinib, afatinib]

Compound: Cn1cnc2c(F)c(Nc3ccc(Br)cc3F)c(C(=O)NOCCO)cc21 [binimetinib]
half-lives [2]: 3.5 h
